Laboratory results from patent publication US20210070748A1, “INHIBITORS OF BRUTONS TYROSINE KINASE” (Pharmacyclics LLC, priority 2015, published 2021).

Experiments:
Assay type in all cases: biochemical
TEC = target: T1, TEC (Homo sapiens, UniProt P42680); experiment: Inhibition of a panel of kinases, in vitro HotSpot kinase assay: TEC; details: D-compounds panel data; 1 μM ATP
T1 sequence (P42680 1-631): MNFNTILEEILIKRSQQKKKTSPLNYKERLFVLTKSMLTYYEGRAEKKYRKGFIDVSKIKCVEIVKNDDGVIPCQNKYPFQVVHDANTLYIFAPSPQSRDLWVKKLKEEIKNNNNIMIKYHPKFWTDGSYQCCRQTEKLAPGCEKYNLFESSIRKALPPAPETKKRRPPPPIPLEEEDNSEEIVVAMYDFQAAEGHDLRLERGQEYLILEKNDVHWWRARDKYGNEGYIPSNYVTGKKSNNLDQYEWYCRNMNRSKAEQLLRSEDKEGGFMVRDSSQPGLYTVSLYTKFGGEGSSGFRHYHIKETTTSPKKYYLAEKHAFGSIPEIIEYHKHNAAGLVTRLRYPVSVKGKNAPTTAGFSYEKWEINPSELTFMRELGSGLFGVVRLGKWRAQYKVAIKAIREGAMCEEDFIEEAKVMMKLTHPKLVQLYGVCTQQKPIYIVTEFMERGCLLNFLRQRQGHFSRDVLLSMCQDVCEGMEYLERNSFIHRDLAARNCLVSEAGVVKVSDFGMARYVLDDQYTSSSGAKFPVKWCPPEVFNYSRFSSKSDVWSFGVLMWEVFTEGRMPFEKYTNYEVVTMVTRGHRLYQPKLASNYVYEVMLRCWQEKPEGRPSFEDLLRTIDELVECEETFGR
Method: (§1) The degree of inhibition of a panel of kinases is determined using the in vitro HotSpot kinase assay (purified enzymes, ^33P-ATP, an appropriate substrate and 1 μM ATP).

LCK = LCK (Homo sapiens, UniProt P06239); experiment: Inhibition of a panel of kinases, in vitro HotSpot kinase assay: LCK; details: D-compounds panel data; 1 μM ATP; read-out: IC50 LCK
EGFR = EGFR (Homo sapiens, UniProt P00533); experiment: Inhibition of a panel of kinases, in vitro HotSpot kinase assay: EGFR; details: D-compounds panel data; 1 μM ATP
Method: as §1

JAK3 = target: T2, JAK3 (Homo sapiens, UniProt P52333); experiment: Inhibition of a panel of kinases, in vitro HotSpot kinase assay: JAK3; details: D-compounds panel data; 1 μM ATP; read-out: IC50 JAK3
T2 sequence (P52333 1-1124): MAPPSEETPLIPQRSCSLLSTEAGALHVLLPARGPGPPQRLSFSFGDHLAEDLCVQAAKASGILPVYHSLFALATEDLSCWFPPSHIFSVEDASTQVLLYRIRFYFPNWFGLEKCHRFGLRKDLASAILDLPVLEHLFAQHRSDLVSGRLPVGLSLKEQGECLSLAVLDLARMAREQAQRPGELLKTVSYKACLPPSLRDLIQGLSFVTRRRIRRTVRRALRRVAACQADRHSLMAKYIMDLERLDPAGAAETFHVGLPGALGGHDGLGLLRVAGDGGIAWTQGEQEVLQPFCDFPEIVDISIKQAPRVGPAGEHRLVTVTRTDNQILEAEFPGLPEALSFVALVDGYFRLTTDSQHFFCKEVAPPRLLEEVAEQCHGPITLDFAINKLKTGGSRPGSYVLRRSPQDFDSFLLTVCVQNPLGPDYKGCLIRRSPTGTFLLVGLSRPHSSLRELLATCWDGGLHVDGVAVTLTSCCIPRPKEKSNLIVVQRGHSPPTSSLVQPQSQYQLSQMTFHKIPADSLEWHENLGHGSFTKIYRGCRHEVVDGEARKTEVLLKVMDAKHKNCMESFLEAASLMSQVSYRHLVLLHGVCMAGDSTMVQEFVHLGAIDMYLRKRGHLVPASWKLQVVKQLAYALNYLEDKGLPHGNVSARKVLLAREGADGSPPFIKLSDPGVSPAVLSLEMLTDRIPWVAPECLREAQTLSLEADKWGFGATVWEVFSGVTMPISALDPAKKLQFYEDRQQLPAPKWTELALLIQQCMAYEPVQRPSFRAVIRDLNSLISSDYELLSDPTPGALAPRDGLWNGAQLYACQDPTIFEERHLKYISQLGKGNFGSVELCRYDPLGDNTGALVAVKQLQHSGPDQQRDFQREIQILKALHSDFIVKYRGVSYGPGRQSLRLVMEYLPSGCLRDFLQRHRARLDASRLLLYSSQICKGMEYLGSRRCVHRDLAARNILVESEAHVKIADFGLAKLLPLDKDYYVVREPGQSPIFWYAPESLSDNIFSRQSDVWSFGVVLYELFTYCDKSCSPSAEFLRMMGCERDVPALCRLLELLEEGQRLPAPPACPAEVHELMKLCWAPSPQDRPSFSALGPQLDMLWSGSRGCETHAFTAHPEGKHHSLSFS

LCK, sequence (P06239 whole entry): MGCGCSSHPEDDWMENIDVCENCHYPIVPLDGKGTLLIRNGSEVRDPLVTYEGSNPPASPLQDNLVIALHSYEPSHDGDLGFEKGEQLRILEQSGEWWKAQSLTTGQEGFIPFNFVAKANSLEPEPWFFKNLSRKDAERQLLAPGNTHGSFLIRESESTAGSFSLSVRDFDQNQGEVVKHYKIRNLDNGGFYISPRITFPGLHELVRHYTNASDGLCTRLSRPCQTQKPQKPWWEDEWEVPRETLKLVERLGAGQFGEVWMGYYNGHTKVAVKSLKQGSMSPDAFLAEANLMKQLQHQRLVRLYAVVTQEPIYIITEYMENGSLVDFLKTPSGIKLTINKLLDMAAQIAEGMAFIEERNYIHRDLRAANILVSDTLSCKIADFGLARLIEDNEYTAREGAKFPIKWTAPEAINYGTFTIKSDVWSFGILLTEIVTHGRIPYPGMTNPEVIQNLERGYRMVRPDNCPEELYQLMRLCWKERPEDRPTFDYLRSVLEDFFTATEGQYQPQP
EGFR, sequence (P00533 25-1210): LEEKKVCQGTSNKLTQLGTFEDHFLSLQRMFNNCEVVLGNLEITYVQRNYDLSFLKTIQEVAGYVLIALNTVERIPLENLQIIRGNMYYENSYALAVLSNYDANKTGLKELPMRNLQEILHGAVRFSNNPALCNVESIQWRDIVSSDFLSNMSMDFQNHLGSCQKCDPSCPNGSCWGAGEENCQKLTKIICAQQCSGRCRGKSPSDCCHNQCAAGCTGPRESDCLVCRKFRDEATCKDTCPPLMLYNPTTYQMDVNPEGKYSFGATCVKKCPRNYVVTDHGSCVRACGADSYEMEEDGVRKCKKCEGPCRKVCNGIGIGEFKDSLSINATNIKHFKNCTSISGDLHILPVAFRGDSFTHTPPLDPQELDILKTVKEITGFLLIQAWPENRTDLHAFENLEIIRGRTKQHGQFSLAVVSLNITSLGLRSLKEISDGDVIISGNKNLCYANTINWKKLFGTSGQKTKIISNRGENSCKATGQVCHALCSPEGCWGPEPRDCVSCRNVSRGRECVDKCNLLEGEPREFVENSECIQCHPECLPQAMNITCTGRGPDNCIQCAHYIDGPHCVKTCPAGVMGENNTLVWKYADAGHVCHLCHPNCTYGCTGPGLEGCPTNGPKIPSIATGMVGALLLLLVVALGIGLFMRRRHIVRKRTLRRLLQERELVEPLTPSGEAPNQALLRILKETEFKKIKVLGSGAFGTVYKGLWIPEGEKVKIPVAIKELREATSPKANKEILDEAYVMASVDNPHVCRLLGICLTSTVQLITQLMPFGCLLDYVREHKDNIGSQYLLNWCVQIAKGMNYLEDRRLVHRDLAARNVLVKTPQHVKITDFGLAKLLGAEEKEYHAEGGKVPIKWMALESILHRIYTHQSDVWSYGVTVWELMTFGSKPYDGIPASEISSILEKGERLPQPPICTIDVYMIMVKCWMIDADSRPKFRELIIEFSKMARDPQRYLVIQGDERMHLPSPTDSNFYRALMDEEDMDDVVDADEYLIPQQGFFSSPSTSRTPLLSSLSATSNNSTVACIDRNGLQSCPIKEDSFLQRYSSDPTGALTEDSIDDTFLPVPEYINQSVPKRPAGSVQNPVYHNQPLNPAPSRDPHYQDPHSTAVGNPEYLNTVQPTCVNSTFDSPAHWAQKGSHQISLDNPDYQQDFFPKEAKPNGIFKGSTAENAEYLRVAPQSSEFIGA

IC50 (TEC)	IC50 (LCK)	IC50 (EGFR)	IC50 (JAK3)	Structure (SMILES)
≤ 10 nM	100 to 1000 nM	1000 to 10000 nM	1000 to 10000 nM	C[C@@H]1[C@H](NC(=O)c2ccc(C3(C)COC3)cc2)CCCN1c1cnc(C(N)=O)c(Nc2cnn(C)c2)n1 [Example D-228, 3-[(1-methyl-1H-pyrazol-4-yl)amino]-5-[(2R,3R)-2-methyl-3-[4-(3-methyloxetan-3-yl)benzamido]piperidin-1-yl]pyrazine-2-carboxamide]
10 to 100 nM	10 to 100 nM	1000 to 10000 nM	> 10000 nM	C[C@@H]1[C@H](NC(=O)c2ccc(C(C)(C)C)s2)CCCN1c1cnc(C(N)=O)c(Nc2cnn(C)c2)n1 [Example D-229, 5-[(2R,3R)-3-(5-tert-butylthiophene-2-amido)-2-methylpiperidin-1-yl]-3-[(1-methyl-1H-pyrazol-4-yl)amino]pyrazine-2-carboxamide]
10 to 100 nM	100 to 1000 nM	1000 to 10000 nM	> 10000 nM	C[C@@H]1[C@H](NC(=O)c2ccc(S(F)(F)(F)(F)F)cc2)CCCN1c1cnc(C(N)=O)c(Nc2cnn(C)c2)n1 [Example D-230, 3-[(1-methyl-1H-pyrazol-4-yl)amino]-5-[(2R,3R)-2-methyl-3-[4-(pentafluoro-λ^6-sulfanyl)benzamido]piperidin-1-yl]pyrazine-2-carboxamide]
10 to 100 nM	100 to 1000 nM	1000 to 10000 nM	> 10000 nM	COc1cc(C(=O)N[C@@H]2CCCN(c3cnc(C(N)=O)c(Nc4cnn(C)c4)n3)[C@@H]2C)ccc1C1CC1 [Example D-231, 5-[(2R,3R)-3-(4-cyclopropyl-3-methoxybenzamido)-2-methylpiperidin-1-yl]-3-[(1-methyl-1H-pyrazol-4-yl)amino]pyrazine-2-carboxamide]
≤ 10 nM	10 to 100 nM	1000 to 10000 nM	1000 to 10000 nM	Cc1ccc(C(=O)N[C@@H]2CCCN(c3cnc(C(N)=O)c(Nc4cnn(C)c4)n3)[C@@H]2C)cc1 [Example D-232, 3-[(1-methyl-1H-pyrazol-4-yl)amino]-5-[(2R,3R)-2-methyl-3-(4-methylbenzamido)piperidin-1-yl]pyrazine-2-carboxamide]
10 to 100 nM	100 to 1000 nM	100 to 1000 nM	1000 to 10000 nM	C[C@@H]1[C@H](NC(=O)c2ccc(SC(F)(F)F)cc2)CCCN1c1cnc(C(N)=O)c(Nc2ccc(N3CCN(C)CC3)cc2)n1 [Example D-233, 5-[(2R,3R)-2-methyl-3-{4-[(trifluoromethyl)sulfanyl]benzamido}piperidin-1-yl]-3-{[4-(4-methylpiperazin-1-yl)phenyl]amino}pyrazine-2-carboxamide]
≤ 10 nM	10 to 100 nM	100 to 1000 nM	100 to 1000 nM	C[C@@H]1[C@H](NC(=O)c2ccc3c(cnn3C)c2)CCCN1c1cnc(C(N)=O)c(Nc2ccc(N3CCN(C)CC3)cc2)n1 [Example D-234, N-[(2R,3R)-1-(5-carbamoyl-6-{[4-(4-methylpiperazin-1-yl)phenyl]amino}pyrazin-2-yl)-2-methylpiperidin-3-yl]-1-methyl-1H-indazole-5-carboxamide]
≤ 10 nM	100 to 1000 nM	100 to 1000 nM	100 to 1000 nM	C[C@@H]1[C@H](NC(=O)c2ccc(C3(O)CC3)cc2)CCCN1c1cnc(C(N)=O)c(Nc2cnn(C)c2)n1 [Example D-235, 5-[(2R,3R)-3-[4-(1-hydroxycyclopropyl)benzamido]-2-methylpiperidin-1-yl]-3-[(1-methyl-1H-pyrazol-4-yl)amino]pyrazine-2-carboxamide]
≤ 10 nM	10 to 100 nM	100 to 1000 nM	100 to 1000 nM	C[C@H]1CC[C@@H](NC(=O)c2ccc(C(C)(C)O)cc2)CN1c1cnc(C(N)=O)c(Nc2cnn(C)c2)n1 [Example D-236, 5-[(2S,5R)-5-[4-(2-hydroxypropan-2-yl)benzamido]-2-methylpiperidin-1-yl]-3-[(1-methyl-1H-pyrazol-4-yl)amino]pyrazine-2-carboxamide]
≤ 10 nM	10 to 100 nM	1000 to 10000 nM	100 to 1000 nM	C[C@@H]1[C@H](NC(=O)c2ccc3scnc3c2)CCCN1c1cnc(C(N)=O)c(Nc2cnn(C)c2)n1 [Example D-237, N-[(2R,3R)-1-{5-carbamoyl-6-[(1-methyl-1H-pyrazol-4-yl)amino]pyrazin-2-yl}-2-methylpiperidin-3-yl]-1,3-benzothiazole-5-carboxamide]
≤ 10 nM	10 to 100 nM	100 to 1000 nM	100 to 1000 nM	Cc1nc2cc(C(=O)N[C@@H]3CCCN(c4cnc(C(N)=O)c(Nc5cnn(C)c5)n4)[C@@H]3C)ccc2o1 [Example D-238, N-[(2R,3R)-1-{5-carbamoyl-6-[(1-methyl-1H-pyrazol-4-yl)amino]pyrazin-2-yl}-2-methylpiperidin-3-yl]-2-methyl-1,3-benzoxazole-5-carboxamide]
≤ 10 nM	10 to 100 nM	100 to 1000 nM	100 to 1000 nM	C[C@@H]1[C@H](NC(=O)c2cnc(C(C)(C)C)s2)CCCN1c1cnc(C(N)=O)c(Nc2cnn(C)c2)n1 [Example D-239, 5-[(2R,3R)-3-(2-tert-butyl-1,3-thiazole-5-amido)-2-methylpiperidin-1-yl]-3-[(1-methyl-1H-pyrazol-4-yl)amino]pyrazine-2-carboxamide]
10 to 100 nM	100 to 1000 nM	100 to 1000 nM	1000 to 10000 nM	C[C@@H]1[C@H](NC(=O)c2ccc(C(O)(C(F)(F)F)C(F)(F)F)cc2)CCCN1c1cnc(C(N)=O)c(Nc2cnn(C)c2)n1 [Example D-240, 5-[(2R,3R)-3-[4-(1,1,1,3,3,3-hexafluoro-2-hydroxypropan-2-yl)benzamido]-2-methylpiperidin-1-yl]-3-[(1-methyl-1H-pyrazol-4-yl)amino]pyrazine-2-carboxamide]
10 to 100 nM	100 to 1000 nM	100 to 1000 nM	1000 to 10000 nM	C[C@@H]1[C@H](NC(=O)c2ccc(SC(F)(F)F)cc2)CCCN1c1cnc(C(N)=O)c(Nc2cnn(C)c2)n1 [Example D-241, 3-[(1-methyl-1H-pyrazol-4-yl)amino]-5-[(2R,3R)-2-methyl-3-{4-[(trifluoromethyl)sulfanyl]benzamido}piperidin-1-yl]pyrazine-2-carboxamide]
≤ 10 nM	100 to 1000 nM	1000 to 10000 nM	100 to 1000 nM	Cc1nc2cc(C(=O)N[C@@H]3CCCN(c4cnc(C(N)=O)c(Nc5cnn(C)c5)n4)[C@@H]3C)ccc2s1 [Example D-242, N-[(2R,3R)-1-{5-carbamoyl-6-[(1-methyl-1H-pyrazol-4-yl)amino]pyrazin-2-yl}-2-methylpiperidin-3-yl]-2-methyl-1,3-benzothiazole-5-carboxamide]
